Source: patent US20120197004A1, “NOVEL ANTI-MICROBIAL PEPTIDOMIMETIC COMPOUNDS AND METHODS TO CALCULATE ANTI-MICROBIAL ACTIVITY” (priority 2006, published 2012)
Converted amounts (≈) assume the structure as drawn. Like-named read-outs stand apart in the source and are kept apart here. Where a SMILES comes first, the peptide text is derived from it. [ ]: non-standard residue; d: D form. ξ: configuration not given here. Oic = O=C(O)[C@@H]1C[C@@H]2CCCC[C@@H]2N1; Tic = O=C(O)[C@@H]1Cc2ccccc2CN1; ξTic = O=C(O)C1Cc2ccccc2CN1; ξOic = O=C(O)C1CC2CCCCC2N1; Ahx = NCCCCCC(=O)O; GABA = NCCCC(=O)O

Tests used:
[1] = test system: Staphylococcus aureus Methicillin/Gentamicin/Tetracycline Resistant (ATCC 33592); details: for p(MIC) Staphylococcus aureus ME/GM/TC resistant: -log(MIC); for Actual Bioactivity: p(MIC) used in Staphylococcus aureus QSAR model; for Minimum Inhibitory Concentration Staphylococcus aureus ME/GM/TC resistant: in vitro MIC, tested at 100, 30, 10, 3, 1, 0.3 and 0.1 μM in 1% DMSO; for MIC Staphylococcus aureus ME/GM/TC resistant: Minimal Inhibitory Concentration, tested at 100-0.1 in 1% DMSO
[2] = test system: Salmonella typhimurium (ATCC 13311); details: for p(MIC) Salmonella typhimurium: -log(MIC)
[3] = test system: Bacillus subtillis (ATCC 43223); details: for p(MIC) Bacillus Subtillis: -log(MIC)
[4] = test system: Mycobacterium ranae (ATCC 110)
in vitro [5] = details: rat, microsomes, pH 7.4
in vitro [6] = details: mouse, microsomes, pH 7.4
in vitro [7] = details: monkey, microsomes, pH 7.4
in vitro [8] = details: dog, microsomes, pH 7.4

Row | SMILES | p(MIC) Staphylococcus aureus ME/GM/TC resistant [1] | Actual Bioactivity [1] | MIC Salmonella typhimurium ([2]; ATCC 13311) [µM] | MIC Bacillus Subtillis ([3]; ATCC 43223) [µM] | Actual Bioactivity [4] | Minimum Inhibitory Concentration Mycobacterium ranae [4] | MIC Mycobacterium ranae ([4]; ATCC 110) [µM] | % hemolysis 100/25 μM (first value) (red blood cells) [%/] | % hemolysis 100/25 μM (second value) (red blood cells) [%] | Minimum Inhibitory Concentration Staphylococcus aureus ME/GM/TC resistant [1] [µM] | p(MIC) Salmonella typhimurium [2] | p(MIC) Bacillus Subtillis [3] | Minimum Inhibitory Concentration Mycobacterium ranae ([4]; ATCC 110) [µM] | MIC Staphylococcus aureus ME/GM/TC resistant [1] [µM] | other results
1 | CC(=O)NCCCC(=O)N[C@@H](Cc1ccccc1)C(=O)N1Cc2ccccc2C[C@H]1C(=O)N1[C@H](C(=O)NCCCC(=O)N[C@@H](CCCCN)C(=O)N2Cc3ccccc3C[C@H]2C(=O)N2[C@H](C(=O)NCCCC(=O)N[C@@H](Cc3ccccc3)C(=O)N3Cc4ccccc4C[C@H]3C(=O)N3[C@H](C(=O)NCCCC(=O)N[C@@H](CCCCN)C(=O)N4Cc5ccccc5C[C@H]4C(=O)N[C@@H](CCCCN)C(=O)N[C@@H](CCCCN)C(=O)N[C@@H](CCCCN)C(=O)N[C@@H](CCCCN)C(=O)N[C@@H](CCCCN)C(N)=O)C[C@@H]4CCCC[C@@H]43)C[C@@H]3CCCC[C@@H]32)C[C@@H]2CCCC[C@@H]21 [FKAB-1Gd3, Ac-Gaba-F-Tic-Oic-Gaba-K-Tic-Oic-Gaba-F-Tic-Oic-Gaba-K-Tic-KKKKK-CONH2] (Ac-[GABA]F[Tic][Oic][GABA]K[Tic][Oic][GABA]F[Tic][Oic][GABA]K[Tic]KKKKK-NH2) | 4.52 | 4.520 | 10 (≈ 26.8 µg/mL) | 1.00 (≈ 2.68 µg/mL) | 5.520 | 3 µM | 3.00 (≈ 8.04 µg/mL) | 29.7 | 10.5 | – | – | – | – | – | Minimum Inhibitory Concentration Salmonella typhimurium ([2]; ATCC 13311): 10 µM; Minimum Inhibitory Concentration Bacillus subtillis ([3]; ATCC 43223): 1 µM; selectivity for Mycobacterium ranae over Salmonella typhimurium ([4]; in vitro): 3 fold
2 | NCCCC[C@H](NC(=O)[C@H](CCCCN)NC(=O)[C@H](CCCCN)NC(=O)[C@H](CCCCN)NC(=O)[C@@H]1Cc2ccccc2CN1C(=O)[C@H](CCCCN)NC(=O)CNC(=O)[C@@H]1C[C@@H]2CCCC[C@@H]2N1C(=O)[C@@H]1Cc2ccccc2CN1C(=O)[C@H](Cc1ccccc1)NC(=O)CNC(=O)[C@@H]1C[C@@H]2CCCC[C@@H]2N1C(=O)[C@@H]1Cc2ccccc2CN1C(=O)[C@H](CCCCN)NC(=O)CNC(=O)[C@@H]1C[C@@H]2CCCC[C@@H]2N1C(=O)[C@@H]1Cc2ccccc2CN1C(=O)[C@H](Cc1ccccc1)NC(=O)CN)C(N)=O [FKAB-1Ga, NH2--GF-Tic-Oic-GK-Tic-Oic-GF-Tic-Oic-GK-Tic-KKKK-CONH2] (H-GF[Tic][Oic]GK[Tic][Oic]GF[Tic][Oic]GK[Tic]KKKK-NH2) | 5.00 | 5.000 | 3 (≈ 7.2 µg/mL) | 1.00 (≈ 2.4 µg/mL) | 5.000 | – | 10.00 (≈ 24 µg/mL) | 33.4 | 14.3 | 10 | 5.52 | 6.00 | 10 | – | –
3 | CC(=O)NCCCCCC(=O)N[C@@H](Cc1ccccc1)C(=O)N1Cc2ccccc2C[C@H]1C(=O)N1[C@H](C(=O)NCCCCCC(=O)N[C@@H](CCCCN)C(=O)N2Cc3ccccc3C[C@H]2C(=O)N2[C@H](C(=O)NCCCCCC(=O)N[C@@H](Cc3ccccc3)C(=O)N3Cc4ccccc4C[C@H]3C(=O)N3[C@H](C(=O)NCCCCCC(=O)N[C@@H](CCCCN)C(=O)N4Cc5ccccc5C[C@H]4C(=O)N[C@@H](CCCCN)C(=O)N[C@@H](CCCCN)C(=O)N[C@@H](CCCCN)C(=O)N[C@@H](CCCCN)C(N)=O)C[C@@H]4CCCC[C@@H]43)C[C@@H]3CCCC[C@@H]32)C[C@@H]2CCCC[C@@H]21 [FKAB-1Gd2, Ac-Ahx-F-Tic-Oic-Ahx-K-Tic-Oic-Ahx-F-Tic-Oic-Ahx-K-Tic-KKKK-CONH2] (Ac-[Ahx]F[Tic][Oic][Ahx]K[Tic][Oic][Ahx]F[Tic][Oic][Ahx]K[Tic]KKKK-NH2) | 5.00 | 5.000 | 10 (≈ 26.7 µg/mL) | 1.00 (≈ 2.67 µg/mL) | 5.520 | – | 3.00 (≈ 8 µg/mL) | 44.7 | 26.6 | 10 | 5.00 | 6.00 | 3 | 10.00 (≈ 26.7 µg/mL) | –
4 | CC(=O)N[C@@H](Cc1ccccc1)C(=O)N1Cc2ccccc2C[C@H]1C(=O)N1[C@H](C(=O)N[C@@H](CCCCN)C(=O)N2Cc3ccccc3C[C@H]2C(=O)N2[C@H](C(=O)N[C@@H](Cc3ccccc3)C(=O)N3Cc4ccccc4C[C@H]3C(=O)N3[C@H](C(=O)N[C@@H](CCCCN)C(=O)N4Cc5ccccc5C[C@H]4C(=O)N[C@@H](CCCCN)C(=O)N[C@@H](CCCCN)C(=O)N[C@@H](CCCCN)C(=O)N[C@@H](CCCCN)C(=O)N[C@@H](CCCCN)C(=O)N[C@@H](CCCCN)C(N)=O)C[C@@H]4CCCC[C@@H]43)C[C@@H]3CCCC[C@@H]32)C[C@@H]2CCCC[C@@H]21 [FKAB-1Gc1, Ac-F-Tic-Oic-K-Tic-Oic-F-Tic-Oic-K-Tic-KKKKKK-CONH2] (Ac-F[Tic][Oic]K[Tic][Oic]F[Tic][Oic]K[Tic]KKKKKK-NH2) | 5.52 | 5.520 | 10 (≈ 24.7 µg/mL) | 1.00 (≈ 2.47 µg/mL) | 5.520 | 3 µM | 3.00 (≈ 7.41 µg/mL) | 41.3 | 33.5 | 3 | 5.00 | 6.00 | – | 3.00 (≈ 7.41 µg/mL) | SA Activity ([1]; Staphylococcus aureus (SA), Table 30): 3; MR Activity [4]: 3 µM
5 | CC(=O)NCC(=O)N[C@@H](Cc1ccccc1)C(=O)N1[C@H](C(=O)NCC(=O)N[C@@H](CCCCN)C(=O)N2[C@H](C(=O)NCC(=O)N[C@@H](Cc3ccccc3)C(=O)N3[C@H](C(=O)NCC(=O)N[C@@H](CCCCN)C(=O)N[C@@H](CCCCN)C(=O)N[C@@H](CCCCN)C(=O)N[C@@H](CCCCN)C(=O)N[C@@H](CCCCN)C(N)=O)C[C@@H]4CCCC[C@@H]43)C[C@@H]3CCCC[C@@H]32)C[C@@H]2CCCC[C@@H]21 [FKAB-1Gf, Ac-GF-Oic-GK-Oic-GF-Oic-GKKKKK-CONH2] (Ac-GF[Oic]GK[Oic]GF[Oic]GKKKKK-NH2) | 0.00 | 0.000 | 100 (≈ 180 µg/mL) | 3.00 (≈ 5.41 µg/mL) | 4.000 | 100 μM/180 μg/mL | 100.00 (≈ 180 µg/mL) | 5.9 | 3.2 | – | 4.00 | 5.52 | – | – | Minimum Inhibitory Concentration Salmonella typhimurium ([2]; in vitro MIC): 180 µg/mL; Minimum Inhibitory Concentration Salmonella typhimurium ([2]; in vitro MIC, tested at 100, 30, 10, 3, 1, 0.3 and 0.1 μM in 1% DMSO): 100 µM; Minimum Inhibitory Concentration Bacillus subtillis ([3]; in vitro MIC): 5.4 µg/mL; % hemolysis 100/25 μM (first value) (red blood cells; 100 μM): 5.9%
6 | CC(=O)N[C@@H](Cc1ccccc1)C(=O)N1Cc2ccccc2CC1C(=O)N1C(C(=O)N[C@@H](CCCCN)C(=O)N2Cc3ccccc3CC2C(=O)N2C(C(=O)N[C@@H](Cc3ccccc3)C(=O)N3Cc4ccccc4CC3C(=O)N3C(C(=O)N[C@@H](CCCCN)C(=O)N4Cc5ccccc5CC4C(=O)N[C@@H](CCCCN)C(=O)N[C@@H](CCCCN)C(=O)N[C@@H](CCCCN)C(=O)N[C@@H](CCCCN)C(N)=O)CC4CCCCC43)CC3CCCCC32)CC2CCCCC21 (stereo partly drawn) [FKAB-1Gc, Ac-F-Tic-Oic-K-Tic-Oic-F-Tic-Oic-K-Tic-KKKK-CONH2] (Ac-F[ξTic][ξOic]K[ξTic][ξOic]F[ξTic][ξOic]K[ξTic]KKKK-NH2) | – | – | 10 (≈ 22.1 µg/mL) | 1.00 (≈ 2.21 µg/mL) | – | – | 30.00 (≈ 66.4 µg/mL) | 86.8 | 50 | 3 | – | – | 30 | 3.00 (≈ 6.64 µg/mL) | remaining at 0.25 h, 1 μM (in vitro [5]): 73%; remaining at 0.5 h, 1 μM (in vitro [5]): 80%; remaining at 1 h, 1 μM (in vitro [5]): 107%; remaining at 0.25 h, 1 μM (in vitro [6]): 86%; remaining at 0.5 h, 1 μM (in vitro [6]): 10%; remaining at 1 h, 1 μM (in vitro [6]): 7%; remaining at 0.25 h, 1 μM (in vitro [7]): 17%; remaining at 0.5 h, 1 μM (in vitro [7]): 24%; remaining at 1 h, 1 μM (in vitro [7]): 75%; remaining at 0.5 h, 1 μM (in vitro [8]): 14%; remaining at 1 h, 1 μM (in vitro [8]): 46%
